The results in this text go back to patent US20240000946A1, “CARBONIC ANHYDRASE INHIBITORS SYNTHESIZED ON INTERCONNECTING LINKER CHAINS” (VILNIUS UNIVERSITY, priority 2020, published 2024).

One assay concerns the target T1, human recombinant CA XIV (Homo sapiens, UniProt Q9ULX7).
T1 construct: recombinant human carbonic anhydrase catalytic domains using the fluorescent thermal shift assay; made in house
As to the kind of experiment: Fluorescent thermal shift assay (FTSA), CA XIV. The note with it: 37° C., pH 7.0. The assay is classed as binding.

The target in a further assay is T2, human recombinant CA XII (Homo sapiens, UniProt O43570).
T2 construct: recombinant human carbonic anhydrase catalytic domains using the fluorescent thermal shift assay; made in house
T2 sequence (O43570 30-289 limits assumed): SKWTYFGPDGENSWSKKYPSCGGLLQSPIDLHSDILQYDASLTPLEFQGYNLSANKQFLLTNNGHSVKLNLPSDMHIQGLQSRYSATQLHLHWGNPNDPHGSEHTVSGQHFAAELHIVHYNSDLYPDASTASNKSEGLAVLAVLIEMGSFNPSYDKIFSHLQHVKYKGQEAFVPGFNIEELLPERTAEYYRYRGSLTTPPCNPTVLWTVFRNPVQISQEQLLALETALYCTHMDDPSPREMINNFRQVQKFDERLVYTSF
As to the kind of experiment: Fluorescent thermal shift assay (FTSA), CA XII. The assay is classed as binding. The note with it: 37° C., pH 7.0.

The next assay addresses T3, human recombinant CA IV (Homo sapiens, UniProt P22748).
T3 construct: recombinant human carbonic anhydrase catalytic domains using the fluorescent thermal shift assay; made in house
The assay is described as follows: Fluorescent thermal shift assay (FTSA), CA IV. The assay is classed as binding. The note with it: 37° C., pH 7.0.

The target in another assay is T4, human recombinant CA IX (Homo sapiens, UniProt Q16790).
T4 construct: recombinant human carbonic anhydrase catalytic domains using the fluorescent thermal shift assay; made in house
As to the kind of experiment: Fluorescent thermal shift assay (FTSA), CA IX. Format: binding. As to conditions: 37° C., pH 7.0.

In another assay the target is T5, human recombinant CA II (Homo sapiens, UniProt P00918).
T5 construct: recombinant human carbonic anhydrase catalytic domains using the fluorescent thermal shift assay; made in house
The assay is described as follows: Fluorescent thermal shift assay (FTSA), CA II. The assay is classed as binding. The note with it: 37° C., pH 7.0.

Another assay has as its target T6, human recombinant CA III (Homo sapiens, UniProt P07451).
T6 construct: recombinant human carbonic anhydrase catalytic domains using the fluorescent thermal shift assay; made in house
The assay is described as follows: Fluorescent thermal shift assay (FTSA), CA III. The assay is classed as binding. The note with it: 37° C., pH 7.0.

The target in a further assay is T7, human recombinant CA VII (Homo sapiens, UniProt P43166).
T7 construct: recombinant human carbonic anhydrase catalytic domains using the fluorescent thermal shift assay; made in house
T7 sequence (P43166 5-262 limits assumed): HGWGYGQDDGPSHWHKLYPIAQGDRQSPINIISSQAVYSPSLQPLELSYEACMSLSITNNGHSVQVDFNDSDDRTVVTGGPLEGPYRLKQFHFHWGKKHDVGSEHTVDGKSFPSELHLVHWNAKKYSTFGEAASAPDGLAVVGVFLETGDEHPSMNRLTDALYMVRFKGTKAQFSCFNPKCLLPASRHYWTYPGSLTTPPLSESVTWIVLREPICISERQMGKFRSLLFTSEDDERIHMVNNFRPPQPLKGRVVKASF
As to the kind of experiment: Fluorescent thermal shift assay (FTSA), CA VII. The note with it: 37° C., pH 7.0. Format: binding.

The target of another assay is T8, human recombinant CA I (Homo sapiens, UniProt P00915).
T8 construct: recombinant human carbonic anhydrase catalytic domains using the fluorescent thermal shift assay; made in house
T8 sequence (P00915 4-261 limits assumed): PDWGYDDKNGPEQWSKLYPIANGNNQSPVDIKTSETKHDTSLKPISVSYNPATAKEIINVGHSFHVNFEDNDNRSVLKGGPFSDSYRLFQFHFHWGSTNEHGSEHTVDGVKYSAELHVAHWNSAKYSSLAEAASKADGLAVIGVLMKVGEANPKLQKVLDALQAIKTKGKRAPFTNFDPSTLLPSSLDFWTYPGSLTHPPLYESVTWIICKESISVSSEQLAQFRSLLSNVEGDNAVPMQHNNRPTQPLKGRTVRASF
The assay is described as follows: Fluorescent thermal shift assay (FTSA), CA I. Format: binding. The note with it: 37° C., pH 7.0.

The target in the next assay is T9, human recombinant CA VB (Homo sapiens, UniProt Q9Y2D0).
T9 construct: recombinant human carbonic anhydrase catalytic domains using the fluorescent thermal shift assay; made in house
T9 sequence (Q9Y2D0 37-296 limits assumed): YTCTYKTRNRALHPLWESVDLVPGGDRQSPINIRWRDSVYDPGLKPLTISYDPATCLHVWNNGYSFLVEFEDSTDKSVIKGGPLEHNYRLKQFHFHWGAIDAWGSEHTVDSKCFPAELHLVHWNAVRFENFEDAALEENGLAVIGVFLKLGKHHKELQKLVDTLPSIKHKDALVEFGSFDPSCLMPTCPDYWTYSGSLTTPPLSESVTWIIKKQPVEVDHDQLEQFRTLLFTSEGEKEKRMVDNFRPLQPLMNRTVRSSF
As to the kind of experiment: Fluorescent thermal shift assay (FTSA), CA VB. The assay is classed as binding. As to conditions: 37° C., pH 7.0.

A further assay deals with T10, human recombinant CA VI (Homo sapiens, UniProt P23280).
T10 construct: recombinant human carbonic anhydrase catalytic domains using the fluorescent thermal shift assay; made in house
T10 sequence (P23280 21-278 limits assumed): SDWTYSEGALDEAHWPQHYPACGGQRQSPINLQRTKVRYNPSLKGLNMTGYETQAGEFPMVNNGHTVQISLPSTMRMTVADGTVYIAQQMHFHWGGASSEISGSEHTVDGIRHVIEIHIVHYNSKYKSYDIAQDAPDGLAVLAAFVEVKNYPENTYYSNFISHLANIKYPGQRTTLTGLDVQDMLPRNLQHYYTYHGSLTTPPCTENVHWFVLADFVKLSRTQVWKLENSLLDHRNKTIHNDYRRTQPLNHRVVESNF
The assay is described as follows: Fluorescent thermal shift assay (FTSA), CA VI. The note with it: 37° C., pH 7.0. The assay is classed as binding.

In the next assay the target is T11, human recombinant CA VA (Homo sapiens, UniProt P35218).
T11 construct: recombinant human carbonic anhydrase catalytic domains using the fluorescent thermal shift assay; made in house
T11 sequence (P35218 39-296 limits assumed): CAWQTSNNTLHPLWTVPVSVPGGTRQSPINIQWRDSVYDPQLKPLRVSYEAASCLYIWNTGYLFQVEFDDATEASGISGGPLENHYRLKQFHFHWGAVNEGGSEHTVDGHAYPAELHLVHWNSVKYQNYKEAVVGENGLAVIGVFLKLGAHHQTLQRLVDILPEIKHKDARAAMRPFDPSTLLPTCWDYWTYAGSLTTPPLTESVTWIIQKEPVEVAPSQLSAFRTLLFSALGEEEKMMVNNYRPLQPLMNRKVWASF
The assay is described as follows: Fluorescent thermal shift assay (FTSA), CA VA. Format: binding. As to conditions: 37° C., pH 7.0.

In assay [1] the target is T12, human recombinant CA XIII (Homo sapiens, UniProt Q8N1Q1).
T12 construct: recombinant human carbonic anhydrase catalytic domains using the fluorescent thermal shift assay; made in house
T12 sequence (Q8N1Q1 4-261 limits assumed): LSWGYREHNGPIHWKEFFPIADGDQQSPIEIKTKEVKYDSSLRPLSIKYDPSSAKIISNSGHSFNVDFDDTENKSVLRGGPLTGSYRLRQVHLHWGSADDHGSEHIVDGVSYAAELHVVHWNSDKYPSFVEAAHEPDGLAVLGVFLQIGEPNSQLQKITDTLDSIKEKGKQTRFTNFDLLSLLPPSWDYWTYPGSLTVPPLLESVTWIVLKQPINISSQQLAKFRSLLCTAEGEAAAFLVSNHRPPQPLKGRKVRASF
The assay is described as follows: Fluorescent thermal shift assay (FTSA), CA XIII. The assay is classed as binding. The note with it: 37° C., pH 7.0.
Method: (§1) The protein solution in the absence and presence of various compound concentrations was heated from 25 to 99° C. (heating rate 1° C./min). The melting temperature Tm shift was determined by following the fluorescence of 8-anilino-1-naphthalene sulfonate (ANS). The samples consisted of 5 μM protein (except 10 μM for CA IV), different concentrations of compound (usually 0-200 μM), 50 μM ANS and 50 mM sodium phosphate buffer (at pH 7.0) containing 100 mM sodium chloride and 2% (v/v) of DMSO. Compound binding constant was obtained from protein Tm as a function of the added ligand concentration. Data analysis was performed, and the curves were fit so that the binding constant is determined for 37° C.

For the next assay, the system named is HeLa cancer cell culture. The assay is described as follows: Acidification of extracellular medium by hypoxic HeLa cell culture. As to conditions: 1 μM compound. The assay is classed as cell-based, human. The method, then:
FIG. 6. HeLa cancer cell culture grown for 48 hours under hypoxic (1% O2) conditions caused acidification of extracellular medium as visualized by pH drop from initial pH 7.74 (shown as a dashed bold line) to pH 6.35.

The target of another assay is T13, carbonic anhydrase IX (Homo sapiens, UniProt Q16790).
T13 construct: made in house
The assay is described as follows: Inhibition of CA enzymatic (CO2 hydratase) activity. The assay is classed as biochemical. The method, then:
The inhibition of hydratase activity of carbonic anhydrase I, II, and IX was performed using Applied Photophysics SX.18 MV-R instrument at 24° C. Theaturated substrate solution was prepared by bubbling carbon dioxide gas into Milly-Q water for 1 hour at room temperature. Phenol red was used as a pH indicator to follow the absorbance (A-557 nm) while CA acidified the medium. […] Raw curves were fitted using a single exponential model, and the dissociation constants were determined using the Morrison equation: […]
Where [CA] is a total added concentration of active CA, [I]—total added inhibitor concentration, and Kd is inhibitor binding affinity.

T1 sequence (Q9ULX7 20-278 limits assumed): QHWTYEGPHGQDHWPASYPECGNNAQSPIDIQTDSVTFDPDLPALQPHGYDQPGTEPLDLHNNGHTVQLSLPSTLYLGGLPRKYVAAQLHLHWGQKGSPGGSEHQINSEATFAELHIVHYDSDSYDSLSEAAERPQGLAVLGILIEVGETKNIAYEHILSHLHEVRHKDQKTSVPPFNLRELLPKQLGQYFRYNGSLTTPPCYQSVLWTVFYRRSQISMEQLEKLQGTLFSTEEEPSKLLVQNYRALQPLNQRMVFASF
T3 sequence (P22748 21-285 limits assumed): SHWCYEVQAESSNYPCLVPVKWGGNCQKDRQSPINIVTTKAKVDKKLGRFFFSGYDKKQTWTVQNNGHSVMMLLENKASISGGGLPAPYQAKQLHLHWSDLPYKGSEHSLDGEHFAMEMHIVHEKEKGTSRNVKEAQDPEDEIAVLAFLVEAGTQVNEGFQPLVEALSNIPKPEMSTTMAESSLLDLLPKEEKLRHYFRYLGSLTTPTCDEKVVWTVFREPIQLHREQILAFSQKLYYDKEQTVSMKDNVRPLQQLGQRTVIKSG
T6 sequence (P07451 3-259 limits assumed): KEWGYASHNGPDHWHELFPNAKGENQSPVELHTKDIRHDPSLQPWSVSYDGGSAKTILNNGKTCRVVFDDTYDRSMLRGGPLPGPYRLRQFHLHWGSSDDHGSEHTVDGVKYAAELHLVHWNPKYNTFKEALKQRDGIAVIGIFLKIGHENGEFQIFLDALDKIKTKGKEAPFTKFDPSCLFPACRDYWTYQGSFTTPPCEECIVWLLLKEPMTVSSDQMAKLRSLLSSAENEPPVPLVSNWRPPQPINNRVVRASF
Method for human recombinant CA III: as §1
Method for human recombinant CA IV: as §1
Method for human recombinant CA IX: as §1
Method for human recombinant CA VA: as §1
Method for human recombinant CA VB: as §1
Method for human recombinant CA VII: as §1
Method for human recombinant CA XIV: as §1

Turning to `NS(=O)(=O)c1c(F)c(F)c(S(=O)(=O)CCNC(=O)CCOCCOCCOCCOCCOCCOCCOCCOCCOCCOCCOCCOCCOCCC(=O)O)c(NC2CCCCCCC2)c1F` [AZ19-3-1, 3-[2-[2-[2-[2-[2-[2-[2-[2-[2-[2-[2-[2-[3-[2-[2-(cyclooctylamino)-3,5,6-trifluoro-4-sulfamoyl-phenyl]sulfonylethylamino]-3-oxo-propoxy]ethoxy]ethoxy]ethoxy]ethoxy]ethoxy]ethoxy]ethoxy]ethoxy]ethoxy]ethoxy]ethoxy]ethoxy]propanoic acid], the Kd at human recombinant CA XIV is 10 nM; on human recombinant CA XII, 20 nM; on human recombinant CA IV it was 1000 nM; at human recombinant CA IX it was 0.05 nM; on human recombinant CA II it was 250 nM; at human recombinant CA III it was ≥ 200000 nM. Besides, the Kd was 50 nM on human recombinant CA VII; 10000 nM on human recombinant CA I; 70 nM on human recombinant CA VB; 500 nM on human recombinant CA VI; 10000 nM at human recombinant CA VA; 20 nM in [1].

Consider `NS(=O)(=O)c1c(F)c(F)c(S(=O)(=O)CCNC(=O)CCOCCOCCOCCOCCOCCOCCOCCOCCOCCOCCOCCOCCNC(=O)CCCCC2SCC3NC(=O)NC32)c(NC2CCCCCCC2)c1F` (centres unmarked) [AZ19-1, N-[2-[2-[2-[2-[2-[2-[2-[2-[2-[2-[2-[2-[3-[2-[2-(cyclooctylamino)-3,5,6-trifluoro-4-sulfamoyl-phenyl]sulfonylmethylamine]-3-oxo-propoxy]ethoxy]ethoxy]ethoxy]ethoxy]ethoxy]ethoxy]ethoxy]ethoxy]ethoxy]ethoxy]ethoxy]ethyl]-5-(2-oxo-1,3,3a,4,6,6a-hexahydrothieno[3,4-d]imidazol-4-yl)pentanamide], for which the Kd is 27 nM at human recombinant CA XIV; 50 nM on human recombinant CA XII; 1000 nM at human recombinant CA IV; 0.1 nM on human recombinant CA IX; 450 nM at human recombinant CA II; ≥ 200000 nM at human recombinant CA III. The Kd on human recombinant CA VII amounted to 150 nM; at human recombinant CA I, 10000 nM; at human recombinant CA VB, 83 nM; on human recombinant CA VI, 980 nM; at human recombinant CA VA, 7100 nM; in [1] it was 50 nM.

Consider `NS(=O)(=O)c1c(F)c(F)c(S(=O)(=O)CCNC(=O)CCOCCOCCOCCOCCOCCOCCOCCOCCOCCOCCOCCOCCOCCC(=O)NCCS(=O)(=O)c2c(F)c(F)c(S(N)(=O)=O)c(F)c2NC2CCCCCCC2)c(NC2CCCCCCC2)c1F` [AZ19-3-2, N-[2-[2-(cyclooctylamino)-3,5,6-trifluoro-4-sulfamoyl-phenyl]sulfonylethyl]-3-[2-[2-[2-[2-[2-[2-[2-[2-[2-[2-[2-[2-[3-[2-[2-(cyclooctylamino)-3,5,6-trifluoro-4-sulfamoyl-phenyl]sulfonylethylamino]-3-oxo-propoxy]ethoxy]ethoxy]ethoxy]ethoxy]ethoxy]ethoxy]ethoxy]ethoxy]ethoxy]ethoxy]ethoxy]ethoxy]propanamide], for which the Kd at human recombinant CA XIV is 8.3 nM; at human recombinant CA XII, 20 nM; on human recombinant CA IV, 250 nM; on human recombinant CA IX, 0.015 nM; at human recombinant CA II, 100 nM; at human recombinant CA III it was ≥ 200000 nM. Further, the Kd at human recombinant CA VII is 330 nM; at human recombinant CA I, 3300 nM; at carbonic anhydrase IX (read-out: Real affinity for CA IX as bounded by enzymatic inhibition), < 10 nM; at human recombinant CA VB it was 70 nM; on human recombinant CA VA it was 3000 nM; in assay [1] it was 2 nM. Also, in the assay on HeLa cancer cell culture, the “Inhibition of acidification at 1 μM” value was “mostly inhibited”. Also, the IC50 on carbonic anhydrase IX (50 nM enzyme CA IX, compound titrates the enzyme, read-out: Compound concentration at 50% remaining activity of CA IX) was ~10 nM.
